Measurements: patent publication US11970474B2, “Substituted benzodiazoles and use thereof in therapy” (THOMAS HELLEDAYS STIFTELSE FÖR MEDICINSK FORSKNING, priority 2018, dated 2024)

Molecular target: OGG1 (Homo sapiens (Human), UniProt O15527)
Test: In vitro OGG1 activity assay
Type: biochemical
Conditions: 800 pM OGG1 enzyme, 2 nM human APEX1, 10 nM 8-oxoA:C substrate
Method: Method 1: In Vitro OGG1 Activity Assay OGG1 activity is assayed by measuring the increase in fluorescence from a duplex oligonucleotide containing an OGG1 substrate and a fluorophore in close proximity that are quenched by a quencher on the complementary strand. […] OGG1 activity releases the substrate base from DNA by cleaving the N-glycosidic bond between base and deoxyribose. The resulting apurinic site is cleaved by an excessive amount APEX1 activity which cause the duplex to melt, which in turn cause the fluorophore to become unquenched. Compounds to be tested are dissolved in DMSO and nano-dispensed directly into black 384-well plates, followed by transfer of enzyme and substrate solutions. […] The fluorescent signal is recorded in a plate reader equipped with suitable filters to register fluorescein fluorescence.

Chain of OGG1 (O15527 whole entry): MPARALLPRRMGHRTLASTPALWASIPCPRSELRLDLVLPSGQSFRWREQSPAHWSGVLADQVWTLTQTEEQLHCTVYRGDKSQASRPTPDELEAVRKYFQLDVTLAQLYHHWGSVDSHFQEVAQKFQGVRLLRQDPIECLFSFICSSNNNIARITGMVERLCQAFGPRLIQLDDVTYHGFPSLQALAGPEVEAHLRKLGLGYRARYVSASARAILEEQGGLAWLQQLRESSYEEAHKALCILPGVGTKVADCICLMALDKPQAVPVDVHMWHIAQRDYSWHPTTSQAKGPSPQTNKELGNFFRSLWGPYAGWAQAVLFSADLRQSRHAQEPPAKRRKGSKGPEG

| SMILES | IC50 [nM] |
| --- | --- |
| COc1ccc(NC(=O)N2CCC(n3c(=O)[nH]c4cc(F)ccc43)CC2)cc1Cl [Example 173, N-(3-Chloro-4-methoxyphenyl)-4-(5-fluoro-2-oxo-2,3-dihydro-1H-1,3-benzodiazol-1-yl)piperidine-1-carboxamide] | 2420 |
| COc1ccc(NC(=O)N2CCC(n3c(=O)[nH]c4c(N)cccc43)CC2)cc1Cl [Example 174, 4-(4-Amino-2-oxo-2,3-dihydro-1H-1,3-benzodiazol-1-yl)-N-(3-chloro-4-methoxyphenyl)piperidine-1-carboxamide] | 2540 |
| CCCNc1cccc2c1[nH]c(=O)n2C1CCN(C(=O)Nc2ccc(OC)c(Cl)c2)CC1 [Example 175, N-(3-Chloro-4-methoxyphenyl)-4-[2-oxo-4-(propylamino)-2,3-dihydro-1H-1,3-benzodiazol-1-yl]piperidine-1-carboxamide] | 2620 |
| COc1ccc(NC(=O)N2CCC(n3c(=O)[nH]c4c(SC)cccc43)CC2)cc1Cl [Example 176, N-(3-Chloro-4-methoxyphenyl)-4-[4-(methylsulfanyl)-2-oxo-2,3-dihydro-1H-1,3-benzodiazol-1-yl]piperidine-1-carboxamide] | 1080 |
| COc1ccc(NC(=O)N2CCC(n3c(=O)[nH]c4c(Br)cccc43)C(O)C2)cc1Cl (centres unmarked) [Example 177, 4-(4-Bromo-2-oxo-2,3-dihydro-1H-1,3-benzodiazol-1-yl)-N-(3-chloro-4-methoxyphenyl)-3-hydroxypiperidine-1-carboxamide] | 5020 |
| COc1ccc(NC(=O)N2CCC(n3c(=O)[nH]c4cc(C#N)ccc43)CC2)cc1Cl [Example 178, N-(3-Chloro-4-methoxyphenyl)-4-(5-cyano-2-oxo-2,3-dihydro-1H-1,3-benzodiazol-1-yl)piperidine-1-carboxamide] | 6920 |
| COc1ccc(NC(=O)N2CCC(n3c(=O)[nH]c4cc(C)ccc43)CC2)cc1Cl [Example 179, N-(3-Chloro-4-methoxyphenyl)-4-(5-methyl-2-oxo-2,3-dihydro-1H-1,3-benzodiazol-1-yl)piperidine-1-carboxamide] | 1570 |
| COc1ccc(NC(=O)N2CCC(n3c(=O)[nH]c4c(C)ccnc43)CC2)cc1Cl [Example 180, N-(3-Chloro-4-methoxyphenyl)-4-{7-methyl-2-oxo-1H,2H,3H-imidazo[4,5-b]pyridin-3-yl}piperidine-1-carboxamide] | 8890 |
| COc1ccc(NC(=O)N2CCC(n3c(=O)[nH]c4cc(C)cnc43)CC2)cc1Cl [Example 181, N-(3-Chloro-4-methoxyphenyl)-4-{6-methyl-2-oxo-1H,2H,3H-imidazo[4,5-b]pyridin-3-yl}piperidine-1-carboxamide] | 7090 |
| COc1ccc(NC(=O)N2CCC(n3c(=O)[nH]c4c(F)cccc43)CC2)cc1Cl [Example 182, N-(3-Chloro-4-methoxyphenyl)-4-(4-fluoro-2-oxo-2,3-dihydro-1H-1,3-benzodiazol-1-yl)piperidine-1-carboxamide] | 4790 |
| O=c1[nH]c2c(Br)cccc2n1[C@H]1CC[C@@H](C(=O)Nc2cnc(Cl)c(Cl)c2)CC1 [Example 185, Cis-4-(4-bromo-2-oxo-2,3-dihydro-1H-1,3-benzodiazol-1-yl)-N-(5,6-dichloropyridin-3-yl)cyclohexane-1-carboxamide] | 1390 |
| O=c1[nH]c2c(Br)cccc2n1[C@H]1CC[C@@H](C(=O)Nc2cccc3cn[nH]c23)CC1 [Example 186, Cis-4-(4-bromo-2-oxo-2,3-dihydro-1H-1,3-benzodiazol-1-yl)-N-(1H-indazol-7-yl)cyclohexane-1-carboxamide] | 2030 |
| O=c1[nH]c2c(Br)cccc2n1[C@H]1CC[C@@H](C(=O)Nc2cncc(Cl)c2)CC1 [Example 188, Cis-4-(4-bromo-2-oxo-2,3-dihydro-1H-1,3-benzodiazol-1-yl)-N-(5-chloropyridin-3-yl)cyclohexane-1-carboxamide] | 4630 |
| Cc1ccc(NC(=O)[C@H]2CC[C@@H](n3c(=O)[nH]c4c(Br)cccc43)CC2)nc1 [Example 189, Cis-4-(4-bromo-2-oxo-2,3-dihydro-1H-1,3-benzodiazol-1-yl)-N-(5-methylpyridin-2-yl)cyclohexane-1-carboxamide] | 1760 |
| Cc1ccc(NC(=O)[C@H]2CC[C@@H](n3c(=O)[nH]c4c(Br)cccc43)CC2)cn1 [Example 190, Cis-4-(4-bromo-2-oxo-2,3-dihydro-1H-1,3-benzodiazol-1-yl)-N-(6-methylpyridin-3-yl)cyclohexane-1-carboxamide] | 467 |
| COc1cc(NC(=O)[C@H]2CC[C@@H](n3c(=O)[nH]c4c(Br)cccc43)CC2)cc(OC)c1OC [Example 193, Cis-4-(4-bromo-2-oxo-2,3-dihydro-1H-1,3-benzodiazol-1-yl)-N-(3,4,5-trimethoxyphenyl)cyclohexane-1-carboxamide] | 1380 |

| SMILES | IC50 [nM] |
| --- | --- |
| Nc1cccc(NC(=O)[C@H]2CC[C@@H](n3c(=O)[nH]c4c(Br)cccc43)CC2)c1 [Example 195, Cis-N-(3-aminophenyl)-4-(4-bromo-2-oxo-2,3-dihydro-1H-1,3-benzodiazol-1-yl)cyclohexane-1-carboxamide] | 3560 |
| O=c1[nH]c2c(Br)cccc2n1[C@H]1CC[C@@H](C(=O)Nc2cccc(O)c2)CC1 [Example 196, Cis-4-(4-bromo-2-oxo-2,3-dihydro-1H-1,3-benzodiazol-1-yl)-N-(3-hydroxyphenyl)cyclohexane-1-carboxamide] | 647 |
| CN(C)c1cccc(NC(=O)[C@H]2CC[C@@H](n3c(=O)[nH]c4c(Br)cccc43)CC2)c1 [Example 198, Cis-4-(4-bromo-2-oxo-2,3-dihydro-1H-1,3-benzodiazol-1-yl)-N-[3-(dimethylamino)phenyl]cyclohexane-1-carboxamide] | 5370 |
| CN(C)c1ccc(NC(=O)[C@H]2CC[C@@H](n3c(=O)[nH]c4c(Br)cccc43)CC2)cc1 [Example 200, Cis-4-(4-bromo-2-oxo-2,3-dihydro-1H-1,3-benzodiazol-1-yl)-N-[4-(dimethylamino)phenyl]cyclohexane-1-carboxamide] | 631 |
| Cc1nc2ccc(NC(=O)[C@H]3CC[C@@H](n4c(=O)[nH]c5c(Br)cccc54)CC3)cc2o1 [Example 203, Cis-4-(4-bromo-2-oxo-2,3-dihydro-1H-1,3-benzodiazol-1-yl)-N-(2-methyl-1,3-benzoxazol-6-yl)cyclohexane-1-carboxamide] | 6270 |
| COc1ccc(NC(=O)[C@H]2CC[C@@H](n3c(=O)[nH]c4c(OC)cccc43)CC2)cc1 [Example 205, Cis-4-(4-methoxy-2-oxo-2,3-dihydro-1H-1,3-benzodiazol-1-yl)-N-(4-methoxyphenyl)cyclohexane-1-carboxamide] | 74.5 |
| COc1ccc(NC(=O)[C@H]2CC[C@@H](n3c(=O)[nH]c4c(OC)cccc43)CC2)cc1F [Example 207, Cis-N-(3-fluoro-4-methoxyphenyl)-4-(4-methoxy-2-oxo-2,3-dihydro-1H-1,3-benzodiazol-1-yl)cyclohexane-1-carboxamide] | 73.6 |
| COc1ncc(NC(=O)[C@H]2CC[C@@H](n3c(=O)[nH]c4c(OC)cccc43)CC2)cc1C [Example 208, Cis-4-(4-methoxy-2-oxo-2,3-dihydro-1H-1,3-benzodiazol-1-yl)-N-(6-methoxy-5-methylpyridin-3-yl)cyclohexane-1-carboxamide] | 115 |
| COc1cc(NC(=O)N2CCC(n3c(=O)[nH]c4ccccc43)CC2)ccc1C [Example 210, N-(3-Methoxy-4-methylphenyl)-4-(2-oxo-2,3-dihydro-1H-1,3-benzodiazol-1-yl)piperidine-1-carboxamide] | 9490 |
| COc1ccc(NC(=O)[C@H]2CC[C@@H](n3c(=O)[nH]c4c(F)cccc43)CC2)cc1 [Example 211, Cis-4-(4-fluoro-2-oxo-2,3-dihydro-1H-1,3-benzodiazol-1-yl)-N-(4-methoxyphenyl)cyclohexane-1-carboxamide] | 153 |
| COc1ccc(NC(=O)[C@H]2CC[C@@H](n3c(=O)[nH]c4c(F)cccc43)CC2)cc1F [Example 213, Cis-4-(4-fluoro-2-oxo-2,3-dihydro-1H-1,3-benzodiazol-1-yl)-N-(3-fluoro-4-methoxyphenyl)cyclohexane-1-carboxamide] | 155 |
| COc1ncc(NC(=O)[C@H]2CC[C@@H](n3c(=O)[nH]c4c(F)cccc43)CC2)cc1C [Example 214, Cis-4-(4-fluoro-2-oxo-2,3-dihydro-1H-1,3-benzodiazol-1-yl)-N-(6-methoxy-5-methylpyridin-3-yl)cyclohexane-1-carboxamide] | 556 |
| O=c1[nH]c2c(F)cccc2n1[C@H]1CC[C@@H](C(=O)Nc2ccc3cc[nH]c3c2)CC1 [Example 215, Cis-4-(4-fluoro-2-oxo-2,3-dihydro-1H-1,3-benzodiazol-1-yl)-N-(1H-indol-6-yl)cyclohexane-1-carboxamide] | 580 |
| COc1ccc(NC(=O)[C@H]2CC[C@@H](n3c(=O)[nH]c4ccc(F)cc43)CC2)cc1 [Example 216, Cis-4-(6-fluoro-2-oxo-2,3-dihydro-1H-1,3-benzodiazol-1-yl)-N-(4-methoxyphenyl)cyclohexane-1-carboxamide] | 8130 |
| COc1ccc(NC(=O)[C@H]2CC[C@@H](n3c(=O)[nH]c4ccc(F)cc43)CC2)cc1C [Example 217, Cis-4-(6-fluoro-2-oxo-2,3-dihydro-1H-1,3-benzodiazol-1-yl)-N-(4-methoxy-3-methylphenyl)cyclohexane-1-carboxamide] | 586 |
| COc1ccc(NC(=O)[C@H]2CC[C@@H](n3c(=O)[nH]c4ccc(F)cc43)CC2)cc1F [Example 218, Cis-4-(6-fluoro-2-oxo-2,3-dihydro-1H-1,3-benzodiazol-1-yl)-N-(3-fluoro-4-methoxyphenyl)cyclohexane-1-carboxamide] | 9010 |
